biological target: Cytochrome P450 2D6 (Homo sapiens, UniProt P10635); assay: Inhibition of CYP2D6 in human liver microsomes at 0.01 to 30 uM using dextromethorphan as substrate in presence of NADPH by UPLC-MS/MS analysis; assay type: ADME, Microsome; conditions: not given
Sequence (P10635 whole entry): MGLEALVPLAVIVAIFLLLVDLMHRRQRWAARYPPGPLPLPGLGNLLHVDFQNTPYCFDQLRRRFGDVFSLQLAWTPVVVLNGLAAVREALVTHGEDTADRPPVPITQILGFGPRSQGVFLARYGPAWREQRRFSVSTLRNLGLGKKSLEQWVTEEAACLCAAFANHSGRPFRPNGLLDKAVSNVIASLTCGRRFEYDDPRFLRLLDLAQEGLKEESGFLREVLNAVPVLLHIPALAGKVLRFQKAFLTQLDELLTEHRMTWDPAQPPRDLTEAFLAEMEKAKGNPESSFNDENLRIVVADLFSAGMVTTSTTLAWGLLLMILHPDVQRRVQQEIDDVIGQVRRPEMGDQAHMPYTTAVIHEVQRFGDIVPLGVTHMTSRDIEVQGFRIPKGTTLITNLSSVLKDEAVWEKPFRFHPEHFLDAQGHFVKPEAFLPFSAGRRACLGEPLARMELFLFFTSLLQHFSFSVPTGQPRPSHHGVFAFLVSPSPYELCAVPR

SMILES	IC50 [µM]
CC(C)NC[C@@H](C(=O)N1CCN(c2ncnc3c2[C@H](C)CC(=O)N3)CC1)c1ccc(Cl)cc1	> 50
C[C@@H]1CC(=O)Nc2ncnc(N3CCN(C(=O)[C@H](CN)c4ccc(Cl)cc4)[C@@H]4C[C@@H]43)c21	> 30
COC1CCC(NC[C@@H](C(=O)N2CCN(c3ncnc4c3[C@H](C)CC(=O)N4)[C@H]3C[C@H]32)c2ccc(Cl)cc2)CC1 (stereo not given in full)	30
C[C@@H]1CC(=O)Nc2ncnc(N3CCN(C(=O)[C@H](CNC4C5COCC54)c4ccc(Cl)cc4)[C@@H]4C[C@@H]43)c21 (stereo not given in full)	> 30
C[C@@H]1CC(=O)Nc2ncnc(N3CCN(C(=O)[C@H](CNC4CC4)c4ccc(Cl)cc4)[C@@H]4C[C@@H]43)c21	> 30

biological target: Cytochrome P450 2C19 (Homo sapiens, UniProt P33261); assay: Inhibition of CYP2C19 in human liver microsomes at 0.01 to 30 uM using mephenytoin as substrate in presence of NADPH by UPLC-MS/MS analysis; assay type: ADME, Microsome; conditions: not given
Sequence (P33261 whole entry): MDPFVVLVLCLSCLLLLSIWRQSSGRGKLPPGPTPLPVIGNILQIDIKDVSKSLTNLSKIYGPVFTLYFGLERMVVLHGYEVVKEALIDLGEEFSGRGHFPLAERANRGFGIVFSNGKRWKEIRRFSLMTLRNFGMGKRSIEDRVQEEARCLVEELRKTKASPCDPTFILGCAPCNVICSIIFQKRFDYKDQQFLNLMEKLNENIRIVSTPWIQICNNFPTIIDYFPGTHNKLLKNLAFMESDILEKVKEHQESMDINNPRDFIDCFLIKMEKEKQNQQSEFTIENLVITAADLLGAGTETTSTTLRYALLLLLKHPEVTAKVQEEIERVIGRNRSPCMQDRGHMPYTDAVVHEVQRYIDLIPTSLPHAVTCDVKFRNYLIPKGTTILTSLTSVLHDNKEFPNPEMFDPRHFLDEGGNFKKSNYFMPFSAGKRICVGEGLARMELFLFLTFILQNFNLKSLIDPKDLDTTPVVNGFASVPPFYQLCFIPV

SMILES	IC50 [µM]
CC(C)NC[C@@H](C(=O)N1CCN(c2ncnc3c2[C@H](C)CC(=O)N3)CC1)c1ccc(Cl)cc1	> 50
C[C@@H]1CC(=O)Nc2ncnc(N3CCN(C(=O)[C@H](CN)c4ccc(Cl)cc4)[C@@H]4C[C@@H]43)c21	> 30
COC1CCC(NC[C@@H](C(=O)N2CCN(c3ncnc4c3[C@H](C)CC(=O)N4)[C@H]3C[C@H]32)c2ccc(Cl)cc2)CC1 (stereo not given in full)	30
C[C@@H]1CC(=O)Nc2ncnc(N3CCN(C(=O)[C@H](CNC4C5COCC54)c4ccc(Cl)cc4)[C@@H]4C[C@@H]43)c21 (stereo not given in full)	> 30
C[C@@H]1CC(=O)Nc2ncnc(N3CCN(C(=O)[C@H](CNC4CC4)c4ccc(Cl)cc4)[C@@H]4C[C@@H]43)c21	> 30

biological target: RAC-alpha serine/threonine-protein kinase (Homo sapiens, UniProt P31749); assay: Inhibition of recombinant AKT1 (104 to 480 end residues) (unknown origin) catalytic domain expressed in Sf21 cells using peptide substrate incubated for 1 hr in presence of ATP by caliper off-chip mobility shift assay; conditions: not given
Sequence (P31749 whole entry, the tested form may be a part): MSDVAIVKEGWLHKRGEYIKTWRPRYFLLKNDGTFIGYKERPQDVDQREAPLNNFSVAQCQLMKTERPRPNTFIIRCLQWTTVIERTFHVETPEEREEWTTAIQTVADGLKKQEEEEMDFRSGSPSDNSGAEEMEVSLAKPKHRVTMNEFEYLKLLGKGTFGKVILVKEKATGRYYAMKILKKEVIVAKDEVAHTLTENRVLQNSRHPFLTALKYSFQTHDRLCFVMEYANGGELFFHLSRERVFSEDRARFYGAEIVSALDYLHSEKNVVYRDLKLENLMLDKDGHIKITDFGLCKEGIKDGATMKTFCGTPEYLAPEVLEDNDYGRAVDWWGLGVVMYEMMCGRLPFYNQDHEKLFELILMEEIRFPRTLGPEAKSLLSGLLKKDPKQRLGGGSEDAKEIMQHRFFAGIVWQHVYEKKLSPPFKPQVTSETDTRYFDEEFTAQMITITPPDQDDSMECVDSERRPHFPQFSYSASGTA

SMILES	IC50 [µM]
CC(C)NC[C@@H](C(=O)N1CCN(c2ncnc3c2[C@H](C)CC(=O)N3)CC1)c1ccc(Cl)cc1	0.0016
CC(C)NC[C@@H](C(=O)N1CCN(c2ncnc3c2[C@H](C)CC(=O)N3)C[C@@H]1C)c1ccc(Cl)cc1	0.22
C[C@@H]1CC(=O)Nc2ncnc(N3CCN(C(=O)[C@H](CN)c4ccc(Cl)cc4)[C@@H]4C[C@@H]43)c21	0.0068
CC(C)NC[C@@H](C(=O)N1CC=C(c2ncnc3c2[C@H](C)CC(=O)N3)CC1)c1ccc(Cl)cc1	0.951
CC(C)NC[C@@H](C(=O)N1CCN(c2ncnc3c2[C@@H](C)CC(=O)N3)CC1)c1ccc(Cl)cc1	> 1
COC1CCC(NC[C@@H](C(=O)N2CCN(c3ncnc4c3[C@H](C)CC(=O)N4)[C@H]3C[C@H]32)c2ccc(Cl)cc2)CC1 (stereo not given in full)	0.0013
C[C@@H]1CC(=O)Nc2ncnc(N3CCN(C(=O)[C@H](CNC4C5COCC54)c4ccc(Cl)cc4)[C@@H]4C[C@@H]43)c21 (stereo not given in full)	0.0041
CC(C)NC[C@@H](C(=O)N1CC2(C1)CN(c1ncnc3c1[C@H](C)CC(=O)N3)C2)c1ccc(Cl)cc1	> 1
CC(C)NC[C@@H](C(=O)N1CCC(c2ncnc3c2[C@H](C)CC(=O)N3)CC1)c1ccc(Cl)cc1	> 1
[2H]C1([2H])N(C(=O)[C@H](CNC(C)C)c2ccc(Cl)cc2)C([2H])([2H])C([2H])([2H])N(c2ncnc3c2[C@H](C)CC(=O)N3)C1([2H])[2H]	0.0016

system: LNCaP; assay: Antiproliferative activity against human LNcap assessed as reduction in cell viability incubated for 72 hrs by Cell Titer Glo luminescent assay; conditions: not given

SMILES	IC50 [µM]
CC(C)NC[C@@H](C(=O)N1CCN(c2ncnc3c2[C@H](C)CC(=O)N3)CC1)c1ccc(Cl)cc1	0.103
[2H]C1([2H])N(C(=O)[C@H](CNC(C)C)c2ccc(Cl)cc2)C([2H])([2H])C([2H])([2H])N(c2ncnc3c2[C@H](C)CC(=O)N3)C1([2H])[2H]	0.131

system: not listed separately; assay: Plasma protein binding in human at 1 to 100 uM incubated for 16 hrs by UPLC-MS/MS analysis; assay type: ADME, cell-free; conditions: dose 1-100 µM, read-out: PPB (converted)

SMILES	fraction unbound at 16 h, up to 100 µM
CC(C)NC[C@@H](C(=O)N1CCN(c2ncnc3c2[C@H](C)CC(=O)N3)CC1)c1ccc(Cl)cc1	0.513

system: not listed separately; assay: Plasma protein binding in mouse at 1 to 100 uM incubated for 16 hrs by UPLC-MS/MS analysis; assay type: ADME, cell-free; conditions: dose 1-100 µM, read-out: PPB (converted)

SMILES	fraction unbound at 16 h, up to 100 µM
CC(C)NC[C@@H](C(=O)N1CCN(c2ncnc3c2[C@H](C)CC(=O)N3)CC1)c1ccc(Cl)cc1	0.477

system: not listed separately; assay: Plasma protein binding in human assessed as unbound fraction at 1 to 100 uM incubated for 16 hrs by UPLC-MS/MS analysis; assay type: ADME, cell-free; conditions: dose 1-100 µM

SMILES	fraction unbound at 16 h, up to 100 µM
CC(C)NC[C@@H](C(=O)N1CCN(c2ncnc3c2[C@H](C)CC(=O)N3)CC1)c1ccc(Cl)cc1	0.513

biological target: T1, Cytochrome P450 1A2 (Homo sapiens, UniProt P05177); assay: Inhibition of CYP1A2 in human liver microsomes at 0.01 to 30 uM […] in presence of NADPH by UPLC-MS/MS analysis; assay type: ADME, Microsome; conditions: not given
T1 sequence (P05177 whole entry): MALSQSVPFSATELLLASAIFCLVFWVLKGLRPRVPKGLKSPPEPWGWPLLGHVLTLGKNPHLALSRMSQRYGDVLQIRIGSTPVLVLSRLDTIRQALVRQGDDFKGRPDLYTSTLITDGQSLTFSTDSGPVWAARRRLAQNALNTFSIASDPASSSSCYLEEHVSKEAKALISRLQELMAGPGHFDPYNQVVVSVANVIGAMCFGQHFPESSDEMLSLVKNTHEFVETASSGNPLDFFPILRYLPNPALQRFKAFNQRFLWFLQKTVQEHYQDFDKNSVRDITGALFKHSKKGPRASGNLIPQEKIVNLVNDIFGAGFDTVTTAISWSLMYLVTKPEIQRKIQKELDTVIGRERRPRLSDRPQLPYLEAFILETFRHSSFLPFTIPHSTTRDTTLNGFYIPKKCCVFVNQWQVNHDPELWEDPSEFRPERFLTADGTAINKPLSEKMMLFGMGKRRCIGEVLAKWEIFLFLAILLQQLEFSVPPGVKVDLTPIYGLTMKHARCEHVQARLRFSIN

SMILES	IC50 [µM]
CC(C)NC[C@@H](C(=O)N1CCN(c2ncnc3c2[C@H](C)CC(=O)N3)CC1)c1ccc(Cl)cc1	25.2
C[C@@H]1CC(=O)Nc2ncnc(N3CCN(C(=O)[C@H](CN)c4ccc(Cl)cc4)[C@@H]4C[C@@H]43)c21	6.48
COC1CCC(NC[C@@H](C(=O)N2CCN(c3ncnc4c3[C@H](C)CC(=O)N4)[C@H]3C[C@H]32)c2ccc(Cl)cc2)CC1 (stereo not given in full)	30
C[C@@H]1CC(=O)Nc2ncnc(N3CCN(C(=O)[C@H](CNC4C5COCC54)c4ccc(Cl)cc4)[C@@H]4C[C@@H]43)c21 (stereo not given in full)	> 30
C[C@@H]1CC(=O)Nc2ncnc(N3CCN(C(=O)[C@H](CNC4CC4)c4ccc(Cl)cc4)[C@@H]4C[C@@H]43)c21	> 30

biological target: Cytochrome P450 2C9 (Homo sapiens, UniProt P11712); assay: Inhibition of CYP2C9 in human liver microsomes at 0.01 to 30 uM using diclofenac as substrate in presence of NADPH by UPLC-MS/MS analysis; assay type: ADME, Microsome; conditions: not given
Sequence (P11712 whole entry): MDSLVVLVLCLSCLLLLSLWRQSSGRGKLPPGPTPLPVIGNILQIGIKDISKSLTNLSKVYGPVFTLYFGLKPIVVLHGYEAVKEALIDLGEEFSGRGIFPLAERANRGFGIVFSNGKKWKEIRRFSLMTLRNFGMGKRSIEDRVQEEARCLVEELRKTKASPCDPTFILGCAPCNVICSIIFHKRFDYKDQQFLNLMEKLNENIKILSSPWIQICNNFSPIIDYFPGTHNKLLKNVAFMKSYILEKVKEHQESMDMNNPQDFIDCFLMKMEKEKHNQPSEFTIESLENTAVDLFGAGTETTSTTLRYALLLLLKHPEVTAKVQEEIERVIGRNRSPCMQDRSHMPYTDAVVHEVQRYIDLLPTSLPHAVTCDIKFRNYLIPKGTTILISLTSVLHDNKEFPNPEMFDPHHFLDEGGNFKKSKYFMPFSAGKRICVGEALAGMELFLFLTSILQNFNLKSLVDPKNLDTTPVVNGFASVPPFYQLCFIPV

SMILES	IC50 [µM]
CC(C)NC[C@@H](C(=O)N1CCN(c2ncnc3c2[C@H](C)CC(=O)N3)CC1)c1ccc(Cl)cc1	> 50
C[C@@H]1CC(=O)Nc2ncnc(N3CCN(C(=O)[C@H](CN)c4ccc(Cl)cc4)[C@@H]4C[C@@H]43)c21	> 30
COC1CCC(NC[C@@H](C(=O)N2CCN(c3ncnc4c3[C@H](C)CC(=O)N4)[C@H]3C[C@H]32)c2ccc(Cl)cc2)CC1 (stereo not given in full)	30
C[C@@H]1CC(=O)Nc2ncnc(N3CCN(C(=O)[C@H](CNC4C5COCC54)c4ccc(Cl)cc4)[C@@H]4C[C@@H]43)c21 (stereo not given in full)	> 30
C[C@@H]1CC(=O)Nc2ncnc(N3CCN(C(=O)[C@H](CNC4CC4)c4ccc(Cl)cc4)[C@@H]4C[C@@H]43)c21	> 30

biological target: Cytochrome P450 3A4 (Homo sapiens, UniProt P08684); assay: Inhibition of CYP3A4 in human liver microsomes at 0.01 to 30 uM […] in presence of NADPH by UPLC-MS/MS analysis; assay type: ADME, Microsome; conditions: not given
Sequence (P08684 whole entry): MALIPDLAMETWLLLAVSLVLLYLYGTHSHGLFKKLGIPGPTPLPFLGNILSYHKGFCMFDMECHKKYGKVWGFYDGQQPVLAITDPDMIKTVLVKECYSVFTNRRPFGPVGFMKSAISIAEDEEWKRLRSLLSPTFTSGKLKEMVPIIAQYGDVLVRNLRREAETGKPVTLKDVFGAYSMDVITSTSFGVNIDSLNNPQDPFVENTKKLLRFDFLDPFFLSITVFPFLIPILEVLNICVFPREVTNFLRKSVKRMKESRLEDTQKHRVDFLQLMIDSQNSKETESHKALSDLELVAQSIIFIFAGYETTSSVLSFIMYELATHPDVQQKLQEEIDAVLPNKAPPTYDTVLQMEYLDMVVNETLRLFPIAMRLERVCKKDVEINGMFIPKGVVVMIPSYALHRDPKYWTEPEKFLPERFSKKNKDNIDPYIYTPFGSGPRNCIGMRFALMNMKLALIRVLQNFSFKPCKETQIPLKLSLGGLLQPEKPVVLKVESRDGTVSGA

SMILES	IC50 [µM]
CC(C)NC[C@@H](C(=O)N1CCN(c2ncnc3c2[C@H](C)CC(=O)N3)CC1)c1ccc(Cl)cc1	39.2
C[C@@H]1CC(=O)Nc2ncnc(N3CCN(C(=O)[C@H](CN)c4ccc(Cl)cc4)[C@@H]4C[C@@H]43)c21	10.1
COC1CCC(NC[C@@H](C(=O)N2CCN(c3ncnc4c3[C@H](C)CC(=O)N4)[C@H]3C[C@H]32)c2ccc(Cl)cc2)CC1 (stereo not given in full)	1.81
C[C@@H]1CC(=O)Nc2ncnc(N3CCN(C(=O)[C@H](CNC4C5COCC54)c4ccc(Cl)cc4)[C@@H]4C[C@@H]43)c21 (stereo not given in full)	4.33
C[C@@H]1CC(=O)Nc2ncnc(N3CCN(C(=O)[C@H](CNC4CC4)c4ccc(Cl)cc4)[C@@H]4C[C@@H]43)c21	1.09

system: not listed separately; assay: Clearance in ICR mouse at 2 mg/kg, iv measured upto 24 hrs by UPLC-MS/MS analysis; assay type: ADME, organism-based; conditions: in vivo

SMILES	clearance [mL/min/kg]
CC(C)NC[C@@H](C(=O)N1CCN(c2ncnc3c2[C@H](C)CC(=O)N3)CC1)c1ccc(Cl)cc1	178

system: not listed separately; assay: AUC (0 to infinity) in ICR mouse at 2 mg/kg, iv measured upto 24 hrs by UPLC-MS/MS analysis; assay type: ADME, organism-based; design: dose 2 mg/kg, time < 24 hrs, route iv; conditions: in vivo

SMILES	AUC(0-inf) [ng·h/mL]
CC(C)NC[C@@H](C(=O)N1CCN(c2ncnc3c2[C@H](C)CC(=O)N3)CC1)c1ccc(Cl)cc1	181

system: not listed separately; assay: Half life in ICR mouse at 2 mg/kg, iv measured upto 24 hrs by UPLC-MS/MS analysis; assay type: ADME, organism-based; conditions: in vivo

SMILES	half-life [h]
CC(C)NC[C@@H](C(=O)N1CCN(c2ncnc3c2[C@H](C)CC(=O)N3)CC1)c1ccc(Cl)cc1	1.56

system: not listed separately; assay: Cmax in overnight fasted ICR mouse at 10 mg/kg, po measured upto 24 hrs by UPLC-MS/MS analysis; assay type: ADME, organism-based; design: dose 10 mg/kg, time < 24 hrs, route po; conditions: in vivo

SMILES	Cmax [ng/mL]
CC(C)NC[C@@H](C(=O)N1CCN(c2ncnc3c2[C@H](C)CC(=O)N3)CC1)c1ccc(Cl)cc1	84.3

system: not listed separately; assay: Tmax in overnight fasted ICR mouse at 10 mg/kg, po measured upto 24 hrs by UPLC-MS/MS analysis; assay type: ADME, organism-based; conditions: in vivo

SMILES	Tmax [h]
CC(C)NC[C@@H](C(=O)N1CCN(c2ncnc3c2[C@H](C)CC(=O)N3)CC1)c1ccc(Cl)cc1	2

system: not listed separately; assay: AUC (0 to infinity) in overnight fasted ICR mouse at 10 mg/kg, po measured upto 24 hrs by UPLC-MS/MS analysis; assay type: ADME, organism-based; design: dose 10 mg/kg, time < 24 hrs, route po; conditions: in vivo

SMILES	AUC(0-inf) [ng·h/mL]
CC(C)NC[C@@H](C(=O)N1CCN(c2ncnc3c2[C@H](C)CC(=O)N3)CC1)c1ccc(Cl)cc1	241
[2H]C1([2H])N(C(=O)[C@H](CNC(C)C)c2ccc(Cl)cc2)C([2H])([2H])C([2H])([2H])N(c2ncnc3c2[C@H](C)CC(=O)N3)C1([2H])[2H]	947

system: not listed separately; assay: MRT(0 to t) in overnight fasted ICR mouse at 10 mg/kg, po measured upto 24 hrs by UPLC-MS/MS analysis; assay type: ADME, organism-based; conditions: in vivo

SMILES	MRT last at 24 h [h]
CC(C)NC[C@@H](C(=O)N1CCN(c2ncnc3c2[C@H](C)CC(=O)N3)CC1)c1ccc(Cl)cc1	2.23

system: not listed separately; assay: Oral bioavailability in overnight fasted ICR mouse at 10 mg/kg measured upto 24 hrs by UPLC-MS/MS analysis; assay type: ADME, organism-based; conditions: in vivo

SMILES	bioavailability [%]
CC(C)NC[C@@H](C(=O)N1CCN(c2ncnc3c2[C@H](C)CC(=O)N3)CC1)c1ccc(Cl)cc1	26.6

system: LNCaP; assay: In vivo antitumor activity against human LNCap cells xenografted in NCG mouse assessed as tumor growth inhibition at 50 mg/kg administered once daily for 18 to 21 days relative to control; assay type: functional; conditions: time 18-21 day, read-out: TGI

SMILES	inhibition in vivo at 50 mg/kg [%]
CC(C)NC[C@@H](C(=O)N1CCN(c2ncnc3c2[C@H](C)CC(=O)N3)CC1)c1ccc(Cl)cc1	50
